Assay results as given in ChEMBL document CHEMBL1201862, “PubChem BioAssay data set” (2004).
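Dose response: 5 concentrations. Exposure: 48 h. Format: 96-well plates. Endpoint: linear interpolation; highest concentration if not reached. GI50: concentration for 50% inhibition of growth.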 The source made the active and inactive calls. Cut-off read from the data, not from the text of the source: active = GI50 up to about 1.1 µM and inactive = higher.

Key:
Assay in all cases: NCI tumour cell line growth inhibition, 48 h
[1] = system: U-251
[2] = system: A549
[3] = system: RPMI-8226
[4] = system: MCF7
[5] = system: KM12
[6] = system: NCI/ADR-RES
[7] = system: M14
[8] = system: NCI-H226
[9] = system: HCT-116
[10] = system: CCRF-CEM
[11] = system: UO-31
[12] = system: HOP-62
[13] = system: HT-29
[14] = system: SW-620
[15] = system: RXF 393
[16] = system: SK-MEL-5
[17] = system: Malme-3M
[18] = system: SNB-75
[19] = system: K562
[20] = system: OVCAR-4

Compound | GI50 [1] | GI50 [2] | GI50 [3] | GI50 [4] | GI50 [5] | GI50 [6] | GI50 [7] | GI50 [8] | GI50 [9] | GI50 [10] | GI50 [11] | GI50 [12] | GI50 [13] | GI50 [14] | GI50 [15] | GI50 [16] | GI50 [17] | GI50 [18] | GI50 [19] | GI50 [20]
CC(C)=NNc1snnc1C(N)=O | > 100 µM (inactive) | > 100 µM (inactive) | > 100 µM (inactive) | > 100 µM (inactive) | > 100 µM (inactive) | > 100 µM (inactive) | > 100 µM (inactive) | > 100 µM (inactive) | > 100 µM (inactive) | > 100 µM (inactive) | > 100 µM (inactive) | > 100 µM (inactive) | > 100 µM (inactive) | > 10 µM (inactive) | > 100 µM (inactive) | > 100 µM (inactive) | > 100 µM (inactive) | > 100 µM (inactive) | > 100 µM (inactive) | 
COc1ccc2c(c1)CCc1c-2n(CCN2CCOCC2)c2ccc(OC)cc12 | > 100 µM (inactive) | 60.3 µM (inactive) | 63.5 µM (inactive) | 85.5 µM (inactive) | 18.8 µM (inactive) | > 100 µM (inactive) | 28 µM (inactive) | 25.5 µM (inactive) | 63.2 µM (inactive) | 16.4 µM (inactive) | > 100 µM (inactive) | > 100 µM (inactive) | 16.1 µM (inactive) | 48.8 µM (inactive) | > 100 µM (inactive) | 54.7 µM (inactive) | 75.2 µM (inactive) | 0.0515 µM (active) | 14.8 µM (inactive) | > 100 µM (inactive)
Cc1ccc(/N=C2N=C(Cl)/C(=C\c3ccccc3)N\2)cc1 | > 100 µM (inactive) | > 100 µM (inactive) | 5.11 µM (inactive) | > 100 µM (inactive) | > 22.6 µM (inactive) | > 38.5 µM (inactive) | > 100 µM (inactive) | > 100 µM (inactive) | > 100 µM (inactive) | > 37.3 µM (inactive) | 79.1 µM (inactive) | > 100 µM (inactive) | > 100 µM (inactive) | > 25 µM (inactive) | > 100 µM (inactive) | 48.8 µM (inactive) | > 100 µM (inactive) | > 100 µM (inactive) | 5.52 µM (inactive) | 65.2 µM (inactive)
OC1c2ccccc2[C@@H]2[C@H]1[C@@H](c1ccccc1)C1(Cc3ccccc3C1O)[C@H]2c1ccccc1 (stereo partly specified) | 3.92 µM (inactive) | 3.86 µM (inactive) | 2.84 µM (inactive) | 1.99 µM (inactive) | 2.77 µM (inactive) | 5.36 µM (inactive) | 4.75 µM (inactive) | 5.28 µM (inactive) | 3.03 µM (inactive) | 3.13 µM (inactive) | 7.52 µM (inactive) | 10.7 µM (inactive) | 2.29 µM (inactive) | 5.01 µM (inactive) | 2 µM (inactive) | 6.21 µM (inactive) | 5.53 µM (inactive) | 7.73 µM (inactive) | 3.02 µM (inactive) | 4.04 µM (inactive)
CN[C@@H](Cc1cccc2ccccc12)C(=O)N[C@@H](CC(C)C)B(O)O | < 0.0126 µM (active) | < 0.01 µM (active) | < 0.01 µM (active) | < 0.01 µM (active) | < 0.01 µM (active) | < 0.0224 µM (active) | < 0.01 µM (active) | 0.00211 µM (active) | < 0.01 µM (active) | 0.00516 µM (active) | < 0.01 µM (active) | < 0.011 µM (active) | < 0.01 µM (active) | < 0.01 µM (active) | < 0.01 µM (active) | < 0.01 µM (active) | < 0.01 µM (active) | < 0.01 µM (active) | < 0.01 µM (active) | < 0.01 µM (active)
CCCCCn1c(=O)c2c(=O)[nH][nH]c2c2ccccc21 | > 100 µM (inactive) | > 100 µM (inactive) | > 100 µM (inactive) | > 100 µM (inactive) | > 100 µM (inactive) | > 100 µM (inactive) |  | > 100 µM (inactive) | > 100 µM (inactive) | > 100 µM (inactive) | > 100 µM (inactive) | > 100 µM (inactive) | > 100 µM (inactive) | > 100 µM (inactive) | > 100 µM (inactive) | > 100 µM (inactive) | > 100 µM (inactive) | > 100 µM (inactive) | > 100 µM (inactive) | > 100 µM (inactive)
O=[N+]([O-])c1ccccc1S(=O)(=O)c1cccc2c1NCCC2 |  | 31.9 µM (inactive) | > 100 µM (inactive) | 38.4 µM (inactive) | 96.4 µM (inactive) | 29 µM (inactive) | 82.8 µM (inactive) | 91 µM (inactive) | 42.7 µM (inactive) | 28 µM (inactive) | 47.4 µM (inactive) | 72.6 µM (inactive) | 29.7 µM (inactive) | > 100 µM (inactive) | 37.8 µM (inactive) | 19.7 µM (inactive) | 48.1 µM (inactive) | 14.8 µM (inactive) | 21.3 µM (inactive) | > 100 µM (inactive)
N#Cc1c(N)nc2c3c1NC(=O)C(C(N)=O)C3c1ccccc1O2 (stereo unspecified) | > 100 µM (inactive) | > 100 µM (inactive) | 63 µM (inactive) | > 100 µM (inactive) | > 100 µM (inactive) | > 100 µM (inactive) | > 100 µM (inactive) | > 100 µM (inactive) | > 100 µM (inactive) | 81.1 µM (inactive) | > 100 µM (inactive) | 60.8 µM (inactive) | > 100 µM (inactive) | > 100 µM (inactive) | 75.2 µM (inactive) | > 100 µM (inactive) | > 100 µM (inactive) | 54.7 µM (inactive) | > 100 µM (inactive) | 95.5 µM (inactive)
CN1C2CCC1CC(=CCOC(c1ccc(F)cc1)c1ccc(F)cc1)C2 | 17.2 µM (inactive) | 17.1 µM (inactive) | 15.3 µM (inactive) | 16.6 µM (inactive) | 15 µM (inactive) | 23.3 µM (inactive) | 16.4 µM (inactive) | 20.3 µM (inactive) | 11.8 µM (inactive) | 37 µM (inactive) | 9.91 µM (inactive) | 17.7 µM (inactive) | 5.21 µM (inactive) | 30.8 µM (inactive) | 14.5 µM (inactive) | 10.3 µM (inactive) | 13.2 µM (inactive) | 13.8 µM (inactive) | 5.94 µM (inactive) | 16.2 µM (inactive)
CCOc1c2c(cc3c1C(=O)c1c(OC)cccc1C3=O)C=C(OC)CC2 | 22.3 µM (inactive) | 13.5 µM (inactive) | 7.24 µM (inactive) | 24.4 µM (inactive) | 10.6 µM (inactive) | 23.2 µM (inactive) | 18.8 µM (inactive) | > 25 µM (inactive) | 17.4 µM (inactive) | 7.8 µM (inactive) | 10.9 µM (inactive) | > 25 µM (inactive) | 10.3 µM (inactive) | 9.98 µM (inactive) | 12 µM (inactive) | 10.1 µM (inactive) | 13.6 µM (inactive) | 8.28 µM (inactive) | 6.87 µM (inactive) | > 25 µM (inactive)
N#CC(C#N)/N=N/c1ccc(-c2nc3ccccc3[nH]2)cc1 | 28.1 µM (inactive) | > 100 µM (inactive) | 20.7 µM (inactive) | 11.1 µM (inactive) | 59.2 µM (inactive) | 17.6 µM (inactive) | 20.8 µM (inactive) | 50.1 µM (inactive) | 15.4 µM (inactive) | 9.84 µM (inactive) | 14 µM (inactive) | > 100 µM (inactive) | 28.7 µM (inactive) | 11.5 µM (inactive) | 19.2 µM (inactive) | 35.6 µM (inactive) | 13.6 µM (inactive) | 42 µM (inactive) | 19.6 µM (inactive) | 22 µM (inactive)
C[C@@H]1C(=O)CC2(O)[C@@]13C[C@@H](OC(=O)[C@@H]3O)[C@@H](C)[C@@]21COC1=O (stereo partly specified) | > 100 µM (inactive) | > 100 µM (inactive) | > 100 µM (inactive) | > 100 µM (inactive) | > 100 µM (inactive) | > 100 µM (inactive) | > 100 µM (inactive) | > 100 µM (inactive) | > 100 µM (inactive) | > 100 µM (inactive) | > 100 µM (inactive) | > 100 µM (inactive) | > 100 µM (inactive) | > 100 µM (inactive) | > 100 µM (inactive) | > 100 µM (inactive) | > 100 µM (inactive) | > 100 µM (inactive) | > 100 µM (inactive) | > 100 µM (inactive)
COc1cc(C2c3cc4c(cc3[C@H](OCCN(C)C)[C@@H]3COC(=O)C23)OCO4)cc(OC)c1O (stereo partly specified) | 0.0468 µM (active) | 0.0334 µM (active) | 0.938 µM (active) | 0.0484 µM (active) | 0.69 µM (active) | 2.67 µM (inactive) | 0.244 µM (active) | 0.0441 µM (active) | 0.753 µM (active) | 0.0791 µM (active) | 0.417 µM (active) | 0.053 µM (active) | 0.621 µM (active) | 0.422 µM (active) | 0.299 µM (active) | 0.307 µM (active) | 0.275 µM (active) | 0.307 µM (active) | 0.713 µM (active) | 1.84 µM (inactive)
Cc1cc(O)c(C=O)c2c1C(=O)Oc1c(CO)c(O)c3c(c1O2)C(O)OC3=O (stereo unspecified) [SLAZINIC ACID] | 60.5 µM (inactive) | > 100 µM (inactive) | 17.4 µM (inactive) | 24.5 µM (inactive) | 36.7 µM (inactive) | 44.7 µM (inactive) | 61.4 µM (inactive) | 38.8 µM (inactive) | 69.8 µM (inactive) | 43 µM (inactive) | 34.5 µM (inactive) | > 100 µM (inactive) | > 100 µM (inactive) | 60 µM (inactive) | 87.5 µM (inactive) | 34.3 µM (inactive) | 41 µM (inactive) | 24.1 µM (inactive) |  | 27.5 µM (inactive)
